# Patent US8741911B2, “Raf inhibitor compounds” (Eli Lilly and Company, priority 2012, dated 2014)
# Where two headings read alike, the source gives them in different places.
# Legend:
# SW900 = assay: CellTiter-Glo proliferation and viability assay; format: cell-based; details: Homo sapiens
# NCI-H2126 = assay: CellTiter-Glo proliferation and viability assay; format: cell-based; details: Homo sapiens
# NCI-H838 = assay: CellTiter-Glo proliferation and viability assay; format: cell-based; details: Homo sapiens
# Solubility = format: physicochemical
# A-Raf (WT) = target: T1, A-Raf (WT) (Homo sapiens, UniProt P10398); assay: ActivX KiNativ A375 whole cell lysate assay; format: binding
# T1 construct: Measurement of Raf Kinase Activities with Native Whole Enzymes Using KiNativ Assay; host or cells: A375 human melanoma cells, whole cell lysate
# T1 sequence (P10398 1-606): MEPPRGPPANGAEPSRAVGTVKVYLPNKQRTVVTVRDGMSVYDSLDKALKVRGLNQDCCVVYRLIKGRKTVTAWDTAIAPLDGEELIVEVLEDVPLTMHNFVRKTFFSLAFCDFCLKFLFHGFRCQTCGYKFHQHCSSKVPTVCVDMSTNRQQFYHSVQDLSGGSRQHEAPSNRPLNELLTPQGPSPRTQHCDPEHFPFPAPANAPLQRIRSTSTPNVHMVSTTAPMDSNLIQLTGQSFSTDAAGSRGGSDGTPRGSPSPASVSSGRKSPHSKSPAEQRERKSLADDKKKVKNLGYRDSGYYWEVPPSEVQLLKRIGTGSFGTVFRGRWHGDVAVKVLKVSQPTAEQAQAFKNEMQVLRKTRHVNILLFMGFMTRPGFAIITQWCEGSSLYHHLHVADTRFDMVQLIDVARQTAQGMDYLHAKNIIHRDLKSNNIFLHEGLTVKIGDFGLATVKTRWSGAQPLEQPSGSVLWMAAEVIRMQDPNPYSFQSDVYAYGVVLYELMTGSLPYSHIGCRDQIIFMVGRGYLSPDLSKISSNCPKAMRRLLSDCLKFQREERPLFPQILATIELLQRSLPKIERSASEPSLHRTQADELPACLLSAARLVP
# NOMO-1 = assay: CellTiter-Glo proliferation and viability assay; format: cell-based; details: Homo sapiens, read-out: Abs IC50
# IM-9 = assay: CellTiter-Glo proliferation and viability assay; format: cell-based; details: Homo sapiens, read-out: Abs IC50
# PC-3 = assay: CellTiter-Glo proliferation and viability assay; format: cell-based; details: Homo sapiens
# SK-HEP-1 = assay: CellTiter-Glo proliferation and viability assay; format: cell-based; details: Homo sapiens, SK-HEP1, read-out: Abs IC50
# B-Raf (V600E) = B-Raf (V600E) (Homo sapiens, UniProt P15056, V600E); assay: ActivX KiNativ A375 whole cell lysate assay; format: binding
# Chain of B-Raf (V600E) (P15056 whole entry V600E): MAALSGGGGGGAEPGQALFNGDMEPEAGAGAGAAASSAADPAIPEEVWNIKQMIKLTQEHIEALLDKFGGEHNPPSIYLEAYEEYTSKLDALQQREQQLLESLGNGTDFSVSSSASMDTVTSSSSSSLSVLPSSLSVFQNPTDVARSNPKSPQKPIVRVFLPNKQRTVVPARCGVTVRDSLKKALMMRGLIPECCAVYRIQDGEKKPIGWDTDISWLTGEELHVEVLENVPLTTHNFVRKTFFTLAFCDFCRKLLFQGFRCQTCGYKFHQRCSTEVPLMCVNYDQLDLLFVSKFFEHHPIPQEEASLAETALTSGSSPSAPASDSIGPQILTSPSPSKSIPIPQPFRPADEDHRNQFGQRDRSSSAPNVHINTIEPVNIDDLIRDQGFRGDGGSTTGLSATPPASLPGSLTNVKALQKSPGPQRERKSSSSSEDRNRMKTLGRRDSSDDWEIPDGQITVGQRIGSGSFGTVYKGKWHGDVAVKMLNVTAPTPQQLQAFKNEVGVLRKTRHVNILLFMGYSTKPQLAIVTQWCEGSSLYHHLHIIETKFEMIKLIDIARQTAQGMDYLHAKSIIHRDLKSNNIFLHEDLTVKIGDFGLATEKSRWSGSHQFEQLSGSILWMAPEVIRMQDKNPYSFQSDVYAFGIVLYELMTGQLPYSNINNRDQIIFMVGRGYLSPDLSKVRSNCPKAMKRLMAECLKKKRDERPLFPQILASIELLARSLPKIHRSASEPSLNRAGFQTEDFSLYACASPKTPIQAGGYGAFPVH
# HT-29 = assay: CellTiter-Glo proliferation and viability assay; format: cell-based; details: Homo sapiens
# A2780 = assay: CellTiter-Glo proliferation and viability assay; format: cell-based; details: Homo sapiens
# NCI-H1436 = assay: CellTiter-Glo proliferation and viability assay; format: cell-based; details: Homo sapiens
# Bioavailability = details: in vivo
# DU-145 = assay: CellTiter-Glo proliferation and viability assay; format: cell-based; details: Homo sapiens
# AsPC-1 = assay: CellTiter-Glo proliferation and viability assay; format: cell-based; details: Homo sapiens
# NCI-H1299 = assay: CellTiter-Glo proliferation and viability assay; format: cell-based; details: Homo sapiens
# Hs746T = assay: CellTiter-Glo proliferation and viability assay; format: cell-based; details: Homo sapiens
# SiHa = assay: CellTiter-Glo proliferation and viability assay; format: cell-based; details: Homo sapiens
# KATOIII = assay: CellTiter-Glo proliferation and viability assay; format: cell-based; details: Homo sapiens, KATO III
# COLO-829 = assay: CellTiter-Glo proliferation and viability assay; format: cell-based; details: Homo sapiens
# Calu-6 = assay: CellTiter-Glo proliferation and viability assay; format: cell-based; details: Homo sapiens
# Colo205 cells = assay: CellTiter-Blue Colo-205 cell proliferation assay; format: cell-based; details: Homo sapiens; Colo-205, CellTiter-Blue; read-out: Cell Proliferation Inhibition IC50
# Experimental: Colo205 cells (catalog #HB-8307) are obtained from the American Type Culture Collection (ATCC, Manassas, Va.). Briefly, cells are grown in RPMI 1640 supplemented with 10% characterized fetal bovine serum (Invitrogen, Carlsbad, Calif.), 1 mM sodium pyruvate, and 1% Penicillin/Streptomycin/L-Glutamine at 37 degrees Celsius, 5% CO2, and 95% humidity. Cells are allowed to expand until reaching 30-60% confluency at which point they are subcultured or harvested for assay use. A serial dilution of test compound is dispensed into a 384-well black clear bottom plate in triplicate. One thousand two-hundred fifty cells are added per well in 50 μL complete growth medium in the 384-well plate. Plates are incubated for 67 hours at 37 degrees Celsius, 5% CO2, and 95% humidity. At the end of the incubation period, 10 μL of a 440 μM solution of resazurin (Sigma, St. Louis, Mo.) in PBS is added to each well of the plate and plates are incubated for an additional 5 hours at 37 degrees Celsius, 5% CO2, and 95% humidity. Plates are read on a Synergy2 reader (Biotek, Winooski, Vt.) using an excitation of 540 nm and an emission of 600 nm. Data is analyzed using Prism software (Graphpad, San Diego, Calif.) to calculate IC50 values.
# The A375, HT-29, and Colo-205 cells (ATCC) harbor a V600E mutation.
structure (smiles),measurement,setting,value
"CNc1ncc2cc(-c3cc(NC(=O)NCCC(C)(C)C)c(F)cc3C)c(C)nc2n1 [Example 1, 1-(3,3-Dimethylbutyl)-3-(2-fluoro-4-methyl-5-(7-methyl-2-(methylamino)pyrido[2,3-d]pyrimidin-6-yl)phenyl)urea]",IC50,SW900; read-out: Abs IC50,0.69 nM
same,IC50,SW900; read-out: Rel IC50,0.23 nM
same,IC50,NCI-H2126; read-out: Abs IC50,> 20 nM
same,IC50,NCI-H2126; read-out: Rel IC50,> 20 nM
same,IC50,NCI-H838; read-out: Abs IC50,13.4 nM
same,IC50,NCI-H838; read-out: Rel IC50,6.97 nM
same,solubility,Solubility,poor
same,inhibition at 0.001 µM,A-Raf (WT); 1 nM,4.3%
same,inhibition at 0.01 µM,A-Raf (WT); 10 nM,13.4%
same,inhibition at 0.1 µM,A-Raf (WT); 100 nM,53.6%
same,inhibition at 1 µM,A-Raf (WT); 1000 nM,72%
same,IC50,NOMO-1,2.63 nM
same,IC50,IM-9,0.38 nM
same,IC50,PC-3; read-out: Abs IC50,> 20 nM
same,IC50,PC-3; read-out: Rel IC50,> 20 nM
same,IC50,SK-HEP-1,1.96 nM
same,inhibition at 0.1 µM,B-Raf (V600E); 100 nM,82.9%
same,% inhibition,"B-Raf (V600E); 100 nM, 0.1 µM",82%
same,inhibition at 1 µM,B-Raf (V600E); 1000 nM,96.5%
same,% inhibition,"B-Raf (V600E); 1000 nM, 1 µM",>98%
same,IC50,"HT-29; HT-29, read-out: Abs IC50",> 20 nM
same,IC50,"HT-29; HT-29, read-out: Rel IC50",0.06 nM
same,IC50,"HT-29; HT-29, B-Raf V600E, colon, CellTiter-Glo, read-out: IC50",7.3 nM
same,IC50,A2780; read-out: Abs IC50,0.81 nM
same,IC50,A2780; read-out: Rel IC50,0.2 nM
same,IC50,NCI-H1436; read-out: Abs IC50,8.35 nM
same,IC50,NCI-H1436; read-out: Rel IC50,12.7 nM
same,bioavailability,Bioavailability,low
same,IC50,DU-145; read-out: Abs IC50,5.18 nM
same,IC50,DU-145; read-out: Rel IC50,0.66 nM
same,IC50,"AsPC-1; ASPC1, read-out: Abs IC50",1.22 nM
same,IC50,"AsPC-1; ASPC1, read-out: Rel IC50",0.38 nM
same,IC50,NCI-H1299; read-out: Abs IC50,0.91 nM
same,IC50,NCI-H1299; read-out: Rel IC50,0.14 nM
same,IC50,Hs746T; read-out: Abs IC50,0.98 nM
same,IC50,Hs746T; read-out: Rel IC50,0.76 nM
same,IC50,SiHa; read-out: Abs IC50,> 20 nM
same,IC50,SiHa; read-out: Rel IC50,> 20 nM
same,IC50,KATOIII; read-out: Abs IC50,0.33 nM
same,IC50,KATOIII; read-out: Rel IC50,0.33 nM
same,IC50,COLO-829; read-out: Abs IC50,0.05 nM
same,IC50,COLO-829; read-out: Rel IC50,0.04 nM
same,IC50,Calu-6; read-out: Abs IC50,0.24 nM
same,IC50,Calu-6; read-out: Rel IC50,0.22 nM
same,IC50,Colo205 cells,27 nM
